Data published in article PMC9843824 (Neuropharmacology, 2022).
Where “and” joins values, the source holds several entries; their conditions need not be identical. Identical values can stand only once. Like-named read-outs stand apart in the source and are kept apart here. Values belong to the compound of their own block, whether it stands above or below them.

What was measured:
[1] = test system: neural activity regulated, high affinity MeAIB/Gln transport in mature rat hippocampal neurons; format: cell-based; conditions: for Result of screen 2 (block of MeAIB transport) / Block of activity regulated MeAIB transport, screen 2: compound 10 μM, 14C-MeAIB 5.4 μM; for IC50: read-out: IC50, inhibition of Ca2+-regulated (spontaneous, activity regulated) MeAIB transport, hippocampal neurons DIV 19–21, 2 min preincubation, 37 °C; for Mode of inhibition of Ca2+-regulated MeAIB transport: Michaelis-Menten kinetic analysis; for Reduction of initial velocity (V, Vmax) of MeAIB transport / Vmax of Ca2+-regulated MeAIB transport in presence of inhibitor: inhibitor 1 μM; for Vmax of Ca2+-regulated MeAIB transport in presence of inhibitor: control 107 ± 9
physchem = format: physicochemical
in vitro = in vitro ADME; conditions: rat, plasma
[2] = format: in vivo; conditions: rat; for Oral availability / bioavailability: gavage vs i.p.
KA rat model of TLE = conditions: for Neuroprotection, FJB staining in hippocampus at 3 d: 10 mg/kg i.p. 1 h and 4 h after SE
[3] = test system: Ca2+-activated K+ channels; conditions: ref Sankaranarayanan et al., 2009; cited from earlier work
NaV1.6 = NaV1.6 (Homo sapiens, UniProt Q9UQD0); experiment: Whole-cell patch-clamp, HEK cells transiently transfected with NaV1.6; format: cell-based; conditions: IC50 NaV1.6, holding potential −80 mV, inter-pulse interval 10 s (0.1 Hz)
NaV1.2 = NaV1.2 (Mus musculus, UniProt B1AWN6); format: cell-based
[4] = test system: Ca2+-independent (low affinity) MeAIB transport in mature rat hippocampal neurons; format: cell-based; conditions: at 15 min of uptake
[5] = 30 mg/kg i.p. 1 h and 4 h after SE, then once/day for 2 d

Chain of NaV1.6 (Q9UQD0 whole entry): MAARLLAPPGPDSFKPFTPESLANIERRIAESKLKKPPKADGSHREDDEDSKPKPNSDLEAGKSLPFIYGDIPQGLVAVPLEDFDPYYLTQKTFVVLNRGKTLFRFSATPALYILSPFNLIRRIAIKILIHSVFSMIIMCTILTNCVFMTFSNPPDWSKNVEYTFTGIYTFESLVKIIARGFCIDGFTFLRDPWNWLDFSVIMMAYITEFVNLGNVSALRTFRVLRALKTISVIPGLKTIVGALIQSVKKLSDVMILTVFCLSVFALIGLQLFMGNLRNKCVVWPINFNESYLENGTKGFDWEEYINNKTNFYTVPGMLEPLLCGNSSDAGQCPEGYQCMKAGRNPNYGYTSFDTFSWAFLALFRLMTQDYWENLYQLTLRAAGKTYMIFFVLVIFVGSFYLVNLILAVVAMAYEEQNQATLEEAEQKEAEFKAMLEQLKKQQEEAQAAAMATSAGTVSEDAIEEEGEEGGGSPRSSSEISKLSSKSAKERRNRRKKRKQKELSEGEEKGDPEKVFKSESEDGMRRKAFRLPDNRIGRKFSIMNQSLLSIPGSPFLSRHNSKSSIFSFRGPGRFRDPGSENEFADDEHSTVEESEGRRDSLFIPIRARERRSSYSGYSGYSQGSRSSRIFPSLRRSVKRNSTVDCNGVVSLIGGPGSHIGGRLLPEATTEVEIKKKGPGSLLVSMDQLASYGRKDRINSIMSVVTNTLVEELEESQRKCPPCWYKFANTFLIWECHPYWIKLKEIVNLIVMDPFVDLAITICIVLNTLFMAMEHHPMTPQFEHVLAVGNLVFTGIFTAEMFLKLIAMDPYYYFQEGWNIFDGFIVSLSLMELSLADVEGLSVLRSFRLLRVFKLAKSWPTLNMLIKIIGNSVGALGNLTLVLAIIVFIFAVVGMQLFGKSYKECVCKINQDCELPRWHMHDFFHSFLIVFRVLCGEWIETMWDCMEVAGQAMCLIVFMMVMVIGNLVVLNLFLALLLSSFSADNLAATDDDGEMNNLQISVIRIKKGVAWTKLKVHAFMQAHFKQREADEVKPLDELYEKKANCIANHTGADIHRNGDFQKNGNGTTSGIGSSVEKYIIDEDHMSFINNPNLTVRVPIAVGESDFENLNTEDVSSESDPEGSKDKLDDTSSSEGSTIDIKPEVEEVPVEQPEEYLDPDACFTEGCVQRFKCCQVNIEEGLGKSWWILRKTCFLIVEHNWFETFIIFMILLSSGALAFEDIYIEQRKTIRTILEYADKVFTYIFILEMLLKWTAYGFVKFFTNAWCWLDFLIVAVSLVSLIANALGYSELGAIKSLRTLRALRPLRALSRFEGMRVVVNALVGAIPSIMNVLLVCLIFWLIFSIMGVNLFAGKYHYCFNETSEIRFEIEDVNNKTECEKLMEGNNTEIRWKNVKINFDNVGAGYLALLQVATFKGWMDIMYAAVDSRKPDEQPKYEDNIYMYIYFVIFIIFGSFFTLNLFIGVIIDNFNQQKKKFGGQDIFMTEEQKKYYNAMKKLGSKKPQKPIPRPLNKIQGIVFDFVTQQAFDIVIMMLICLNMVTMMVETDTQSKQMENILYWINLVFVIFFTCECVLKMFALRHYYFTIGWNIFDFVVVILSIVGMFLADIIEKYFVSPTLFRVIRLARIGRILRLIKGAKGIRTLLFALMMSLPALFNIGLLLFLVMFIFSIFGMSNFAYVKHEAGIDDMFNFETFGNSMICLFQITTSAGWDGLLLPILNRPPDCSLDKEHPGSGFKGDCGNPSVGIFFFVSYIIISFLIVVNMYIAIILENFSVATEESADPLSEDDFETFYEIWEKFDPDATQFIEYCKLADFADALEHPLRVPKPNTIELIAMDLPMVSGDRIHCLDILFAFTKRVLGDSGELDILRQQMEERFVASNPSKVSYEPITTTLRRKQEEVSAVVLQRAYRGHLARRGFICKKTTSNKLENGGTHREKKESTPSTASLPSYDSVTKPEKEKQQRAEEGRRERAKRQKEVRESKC
Chain of NaV1.2 (B1AWN6 whole entry): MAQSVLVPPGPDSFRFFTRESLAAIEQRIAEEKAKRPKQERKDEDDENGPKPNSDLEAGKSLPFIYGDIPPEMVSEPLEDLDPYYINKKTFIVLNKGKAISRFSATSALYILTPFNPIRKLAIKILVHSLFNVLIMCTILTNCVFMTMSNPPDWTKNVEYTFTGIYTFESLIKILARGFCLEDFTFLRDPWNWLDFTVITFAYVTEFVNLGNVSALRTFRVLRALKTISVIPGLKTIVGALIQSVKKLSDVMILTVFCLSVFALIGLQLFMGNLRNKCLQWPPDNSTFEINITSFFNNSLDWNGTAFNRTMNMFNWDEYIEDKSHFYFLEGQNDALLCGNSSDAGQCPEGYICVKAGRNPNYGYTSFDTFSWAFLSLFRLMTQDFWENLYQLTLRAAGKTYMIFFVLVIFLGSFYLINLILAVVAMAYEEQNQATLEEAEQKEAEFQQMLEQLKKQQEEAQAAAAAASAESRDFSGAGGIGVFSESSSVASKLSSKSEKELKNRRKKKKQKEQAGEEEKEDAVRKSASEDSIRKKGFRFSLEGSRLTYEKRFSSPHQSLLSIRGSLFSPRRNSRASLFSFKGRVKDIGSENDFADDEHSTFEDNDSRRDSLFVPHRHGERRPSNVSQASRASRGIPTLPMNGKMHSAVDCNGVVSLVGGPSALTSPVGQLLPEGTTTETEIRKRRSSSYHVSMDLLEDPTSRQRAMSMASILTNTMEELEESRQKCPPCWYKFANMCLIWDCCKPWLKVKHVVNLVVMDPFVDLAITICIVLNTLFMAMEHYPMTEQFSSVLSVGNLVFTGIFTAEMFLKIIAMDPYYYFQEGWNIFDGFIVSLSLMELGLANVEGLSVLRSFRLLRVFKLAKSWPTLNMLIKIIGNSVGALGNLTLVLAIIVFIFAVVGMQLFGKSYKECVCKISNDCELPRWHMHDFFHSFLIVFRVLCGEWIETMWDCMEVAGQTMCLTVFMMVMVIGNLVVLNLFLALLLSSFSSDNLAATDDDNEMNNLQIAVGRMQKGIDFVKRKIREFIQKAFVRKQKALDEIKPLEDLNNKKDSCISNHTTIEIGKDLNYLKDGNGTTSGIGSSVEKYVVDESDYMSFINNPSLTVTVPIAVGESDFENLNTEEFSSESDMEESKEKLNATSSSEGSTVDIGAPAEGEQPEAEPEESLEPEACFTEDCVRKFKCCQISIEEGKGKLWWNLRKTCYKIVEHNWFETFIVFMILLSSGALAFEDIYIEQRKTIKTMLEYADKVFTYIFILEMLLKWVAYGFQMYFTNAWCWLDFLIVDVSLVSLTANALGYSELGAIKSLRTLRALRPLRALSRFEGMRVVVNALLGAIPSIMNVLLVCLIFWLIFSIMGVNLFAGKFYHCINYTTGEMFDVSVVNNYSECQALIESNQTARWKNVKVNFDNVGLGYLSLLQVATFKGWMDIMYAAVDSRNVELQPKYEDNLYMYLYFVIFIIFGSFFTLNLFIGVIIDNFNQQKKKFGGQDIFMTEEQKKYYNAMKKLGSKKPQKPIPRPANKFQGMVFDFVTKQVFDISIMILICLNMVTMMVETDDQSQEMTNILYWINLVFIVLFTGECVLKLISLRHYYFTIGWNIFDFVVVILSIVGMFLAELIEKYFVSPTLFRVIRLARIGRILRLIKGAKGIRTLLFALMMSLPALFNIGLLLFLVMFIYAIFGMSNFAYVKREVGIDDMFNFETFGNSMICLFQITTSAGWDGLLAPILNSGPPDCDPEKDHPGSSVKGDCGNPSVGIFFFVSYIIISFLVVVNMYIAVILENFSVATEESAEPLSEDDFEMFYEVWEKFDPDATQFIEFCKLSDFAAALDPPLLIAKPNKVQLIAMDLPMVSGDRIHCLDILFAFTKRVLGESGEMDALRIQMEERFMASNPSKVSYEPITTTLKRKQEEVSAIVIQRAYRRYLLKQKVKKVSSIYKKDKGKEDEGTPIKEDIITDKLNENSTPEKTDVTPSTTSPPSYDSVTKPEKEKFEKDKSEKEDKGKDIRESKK

Structure (SMILES): Cc1ccc(-c2csc(N)n2)c2ccccc12 [SKA-190, 4-(4-Methylnaphthalen-1-yl)thiazol-2-amine]
Result of screen 2 (block of MeAIB transport) [1]: active
logP (physchem): 4.53

Structure (SMILES): Cc1ccc(-c2nc(N)sc2Br)c2ccccc12 [SKA-375, 5-Bromo-4-(4-methylnaphthalen-1-yl)thiazol-2-amine]
logP (physchem): 5.25

Structure (SMILES): Nc1nc(-c2ccc(OC(F)(F)F)cc2)cs1 [SKA-41, 4-(4-(Trifluoromethoxy)phenyl)thiazol-2-amine]
logP (physchem): 4.58
fraction unbound (in vitro): 0.043
Brain penetration [2]: excellent
Oral availability / bioavailability [2]: excellent
Neuroprotection, FJB staining in hippocampus at 3 d (KA rat model of TLE; then once/day for 2 d): neuro-protective, but not as protective as riluzole
Activity on Ca2+-activated K+ channels [3]: inactive

Structure (SMILES): COc1ccc(CCN(C)CCCC(C#N)(c2ccc(OC)c(OC)c2)C(C)C)cc1OC (stereo not drawn) [verapamil, reference compound]
Spontaneous MeAIB transport after 15 min in presence of inhibitor [1]: 119 ± 9 pmol/well

Structure (SMILES): Nc1nc(-c2cccc3ccccc23)cs1 [SKA-75, 4-(Naphthalen-1-yl)thiazol-2-amine]
Block of activity regulated MeAIB transport, screen 2 [1]: ~ 50%
IC50 ([1]; 15 min uptake): 4.5 ± 0.45 µM
logP (physchem): 4.05

Structure (SMILES): Nc1nc(-c2ccc3ccccc3c2)c(Br)s1 [SKA-220, 5-Bromo-4-(naphthalen-2-yl)thiazol-2-amine]
Result of screen 2 (block of MeAIB transport) [1]: active
logP (physchem): 4.42

Structure (SMILES): Nc1nc2ccc(OC(F)(F)F)cc2s1 [Riluzole, reference compound]
Mode of inhibition of Ca2+-regulated MeAIB transport [1]: noncompetitive
Reduction of initial velocity (V, Vmax) of MeAIB transport [1]: ~ 50%
Vmax of Ca2+-regulated MeAIB transport in presence of inhibitor [1]: 54 ± 1 pmol/min
IC50 ([1]; 15 min uptake): 0.86 ± 0.02 µM
Spontaneous MeAIB transport after 15 min in presence of inhibitor ([1]; riluzole 10 μM, 23.4 μM 14C-MeAIB, total without inhibitor 619±21): 133 ± 8 pmol/well
Frequency dependence of NaV1.2 block (NaV1.2): not frequency dependent
IC50 (NaV1.6): 115 ± 2 µM
Neuroprotection, FJB staining in hippocampus at 3 d (KA rat model of TLE; then once/day for 2 d): prevents acute neural injury altogether
Behaviour of rats after treatment (KA rat model of TLE; 10 mg/kg post-SE): relatively immobile/sedated
Duration of KA-induced SE events (KA rat model of TLE; 10 mg/kg post-SE, untreated 4–6 h): less than 2 h
Behaviour of rats at higher doses (KA rat model of TLE; e.g., 30 mg/kg): render rats immobile and unresponsive
Neural injury in hippocampal limbic areas (KA rat model of TLE; post-treated): largely prevented neural injury

Structure (SMILES): CNC(C)(C)C(=O)O [MeAIB, methylaminoisobutryic acid, reference compound]
Vmax of Ca2+-dependent MeAIB transport ([1]; at 15 min of uptake): 1605 ± 139 pmol/well
Km ([1]; read-out: Km for spontaneous Ca2+-dependent MeAIB transport, Michaelis-Menten analysis, 15 min uptake): 61 ± 5 µM
Vmax of Ca2+-independent MeAIB transport [4]: 1793 ± 131 pmol/well

Structure (SMILES): Nc1nc(-c2cccc3ccccc23)c(Br)s1 [SKA-219, 5-Bromo-4-(naphthalen-1-yl)thiazol-2-amine]
Block of activity regulated MeAIB transport, screen 2 [1]: > 95%
logP (physchem): 4.76
fraction unbound (in vitro): 0.005

Structure (SMILES): Nc1nc(-c2ccc3ccccc3c2)cs1 [SKA-76, 4-(Naphthalen-2-yl)thiazol-2-amine]
Block of activity regulated MeAIB transport, screen 2 [1]: ~ 50%
IC50 ([1]; 15 min uptake): 6.2 ± 0.9 µM
logP (physchem): 4.05

Second part, led by results:

logP (physchem): 4.14
Structure (SMILES): Nc1nc(-c2ccc3ccccc3c2)c(F)s1 [SKA-382, 5-Fluoro-4-(naphthalen-2-yl)thiazol-2-amine]

logP (physchem): 4.91
fraction unbound (in vitro): 0.01
Oral availability / bioavailability [2]: excellent oral availability
Structure (SMILES): Cc1ccc(-c2nc(N)sc2Cl)c2ccccc12 [SKA-377, 5-Chloro-4-(4-methylnaphthalen-1-yl)thiazol-2-amine]
Neuroprotection, FJB staining in hippocampus at 3 d (KA rat model of TLE; then once/day for 2 d): neuro-protective, but not as protective as riluzole
Hippocampal neural injury by FJB staining and NeuN fluorescence at 3 d (KA rat model of TLE; [5]): neuroprotective

IC50 ([1]; 15 min uptake): 4.3 ± 0.4 µM
logP (physchem): 4.53
fraction unbound (in vitro): 0.015
Structure (SMILES): Nc1nc(-c2ccc(OC(F)(F)F)cc2)c(Cl)s1 [SKA-376, 5-Chloro-4-(4-(trifluoromethoxy)phenyl)thiazol-2-amine]
Hippocampal neural injury by FJB staining and NeuN fluorescence at 3 d (KA rat model of TLE; [5]): did not significantly reduce neural injury

IC50 ([1]; 15 min uptake): 1.1 ± 0.17 µM
IC50 (NaV1.6): 28 µM and ~28 µM
logP (physchem): 4.2
fraction unbound (in vitro): 0.008
Brain penetration [2]: excellent
Structure (SMILES): Nc1nc(-c2cccc3ccccc23)c(Cl)s1 [SKA-378, 5-Chloro-4-(naphthalen-1-yl)thiazol-2-amine]
Mode of inhibition of Ca2+-regulated MeAIB transport [1]: noncompetitive
Reduction of initial velocity (V, Vmax) of MeAIB transport [1]: ~ 50%
Vmax of Ca2+-regulated MeAIB transport in presence of inhibitor [1]: 73 ± 6 pmol/min
Neuroprotection, FJB staining in hippocampus at 3 d (KA rat model of TLE; then once/day for 2 d): neuro-protective, but not as protective as riluzole
FJB staining in hippocampal CA1-4 neurons at 3 d (KA rat model of TLE; [5]): minimal
NeuN fluorescence in pyramidal neuron subfields at 3 d (KA rat model of TLE; [5]): largely prevents the diminished NeuN fluorescence
Rats still exhibiting maximal stage 5 seizures (Racine scale) (KA rat model of TLE; 30 mg/kg i.p. given before KA (pretreatment)): > 50%
FJB staining, hippocampal CA pyramidal neuron layers at 3 d (KA rat model of TLE; 30 mg/kg i.p. pretreatment): blocks neuronal hippocampal injury
NeuN fluorescent intensity in CA4, CA3, CA1 at 3 d (KA rat model of TLE; 30 mg/kg i.p. pretreatment): nearly identical to sham levels
Seizure severity vs non-treated KA-injected rats (KA rat model of TLE; 30 mg/kg i.p. pretreatment): did not show a significant reduction in seizure severity
Duration of KA-induced SE events (KA rat model of TLE; 30 mg/kg post-SE): not affected

IC50 ([1]; 15 min uptake): 6.5 ± 0.25 µM
logP (physchem): 4.42
Structure (SMILES): Nc1nc(-c2ccc3ccccc3c2)c(Cl)s1 [SKA-379, 5-Chloro-4-(naphthalen-2-yl)thiazol-2-amine]
Neuroprotection, FJB staining in hippocampus at 3 d (KA rat model of TLE; then once/day for 2 d): neuro-protective, but not as protective as riluzole
Hippocampal neural injury by FJB staining and NeuN fluorescence at 3 d (KA rat model of TLE; [5]): neuroprotective
